In patent publication US6525078B1, “Compound for the treatment of atherosclerotic-thrombotic pathological conditions” (priority 2002, dated 2003):

Experiments:
rabbit aortae = experiment: Vascular relaxation of contracted aortic rings in vitro; settings: at a concentration of 10^−4 M; contraction induced with norepinephrine (10^−6 M)
Experimental: The ability to induce vascular relaxation by acting as a donor of nitric oxide was tested in vitro on rabbit aortae. Rings of aortae were suspended in a Krebs-Henseleit solution at 37° C., submitted to a 1 g tension and connected to a force transducer.

[1] = test system: transcellular synthesis of prostacyclin; experiment: Transcellular prostacyclin synthesis: human PRP layered on acetylsalicylic acid-pretreated cultured bovine endothelial cells (6-keto-prostaglandin F1α by radioimmunoassay); format: cell-based
Experimental: The effects on the transcellular synthesis of prostacyclin from endoperoxides generated in platelets were assessed by layering platelet rich plasma (PRP), obtained from healthy human subjects as described above, on cultured bovine endothelial cells (5×10^5 cells/well). The endothelial cells were pretreated with acetylsalicylic acid (10^−4 M) in order to inhibit the direct synthesis of endoperoxides, and washed twice with Dulbecco's phosphate buffered saline. Then to individual samples of endothelial cells there were added at 37° C. while shaking on an oscillating platform, 0.5 ml of PRP samples pretreated with the test compounds in various concentrations, ranging from […] to 10^−3 M. Collagen (0.5 μg/ml) was then added to each sample. After 2 minutes of contact at 37° C., PRP was removed and centrifuged at 12,000×g, and the supernatant was frozen and kept at −20° C. for the determination of 6-keto-prostaglandin F1α by radioimmunoassay.
6-Keto-prostaglandin F1α is a stable metabolite into which prostacyclin is rapidly converted.

[2] = test system: platelet aggregation in platelet-rich plasma (PRP); experiment: Platelet aggregation in human platelet-rich plasma (aggregometer, light transmittance); format: cell-based; settings: for ability to counteract platelet aggregation by arachidonic acid: aggregation induced by arachidonic acid, human PRP
Experimental: Platelet aggregation experiments were performed on platelet-rich plasma (PRP) prepared from blood of healthy human subjects, who had not taken cyclooxygenase inhibitors (acetylsalicylic acid, non-steroidal anti-inflammatory agents) for at least two weeks. Blood was collected in test tubes containing a 3.2% sodium citrate solution ( 1/10 of blood volume) and immediately centrifuged at 150×g for 15 minutes. Samples of PRP were further centrifuged at 12,000×g in order to obtain platelet-poor plasma (PPP), used for calibration of light transmittance of the double-channel aggregometer, fixing the transmittance of PRP as 10% and that of PPP as 90%. Platelet aggregation in PRP of each subject was tested measuring the percent increase in transmittance under the addition of increasing amounts of sodium arachidonate, in concentrations in the range from 300 to 900 μM, or of collagen, in concentrations in the range from 0.5 to 2.5 μg/ml, or of U-46619, in concentrations in the range from 0.2 to 1.6 μM. (U-46619, i.e., 9,11-dideoxy-11α, 9α-epoxymethano-prostaglandin F2α is an active synthetic analogue of thromboxane A2 and it is chemically stable, at difference from the natural compound; it is therefore used as a substitute in pharmacological experiments). In this way the threshold concentration, i.e., the concentration inducing a submaximal irreversible aggregation was assessed in each subject with the three agents.
PRP samples of subjects not responding to the maximal concentrations were discarded.

thromboxane synthesis = experiment: Thromboxane synthesis in clotting blood (serum TxB2 by radioimmunoassay); format: cell-based; settings: human blood clotted 60 min at 37° C.
Experimental: Test compounds were added in a series of concentrations ranging from 10^−7 M to 10^−3 M to samples of blood from healthy human subjects, who had not taken cyclooxygenase inhibitors (acetylsalicylic acid, non-steroidal anti-inflammatory agents) for at least two weeks. The blood samples were allowed to clot for 60 min in a bath at 37° C., and then centrifuged at 2500×g for 10 min. The serum was separated and kept frozen at −20° C. for the determination of TxB2 by radio immunoassay. TxB2 is the stable metabolite into which thromboxane A2 is rapidly converted.

COc1ccc(C(=O)N[C@H]2CC[C@H](O[N+](=O)[O-])CC2)cc1C(=O)NCc1cccnc1 [4-Methoxy-N^1-(4-trans-nitrooxycyclohexyl)-N^3-(3-pyridinylmethyl)-1,3-benzenedicarboxamide]
relaxation of the aortic ring (rabbit aortae): complete relaxation
level of prostacyclin metabolite relative to the amount produced in basal conditions by endothelial cells not submitted to cyclooxygenase inhibition ([1]; acetylsalicylic acid-treated endothelial cells, collagen 0.5 μg/ml): 8-16 times
production of the prostacyclin metabolite (6-keto-prostaglandin F1α), level reached ([1]; acetylsalicylic acid-treated endothelial cells, collagen 0.5 μg/ml, 2 minutes at 37° C.): 800-1600 μpg/ml
concentration from which production of the prostacyclin metabolite was markedly increased ([1]; collagen 0.5 μg/ml, 2 minutes at 37° C., 6-keto-prostaglandin F1α): ≥ 10^−6 M

CC(=O)Oc1ccccc1C(=O)O [acetylsalicylic acid]
ability to counteract platelet aggregation by arachidonic acid [2]: shared
effect on thromboxane synthesis (thromboxane synthesis): at difference from acetylsalicylic acid and ozagrel

O=C(O)Cc1ccc(CCNS(=O)(=O)c2ccc(Cl)cc2)cc1 [daltroban, p-[2-(p-chlorobenzenesulfonamido)ethyl]phenylacetic]
ability to counteract the aggregation by U-46619 ([2]; aggregation induced by U-46619, human PRP): shared only by daltroban
ability to counteract platelet aggregation by arachidonic acid [2]: shared
stimulation of the synthesis of prostacyclin ([1]; PRP on acetylsalicylic acid-treated bovine endothelial cells): did not stimulate the synthesis of prostacyclin

O=C(O)/C=C/c1ccc(Cn2ccnc2)cc1 [ozagrel, (E)-3-[4-(1H-imidazol-1-ylmethyl)-phenyl]-2-propenoic acid]
ability to counteract platelet aggregation by arachidonic acid [2]: shared
effect on thromboxane synthesis (thromboxane synthesis): at difference from acetylsalicylic acid and ozagrel
